In US7951950B2, “PGD2 receptor antagonists for the treatment of inflammatory diseases” (Millennium Pharmaceuticals, Inc., priority 2005, dated 2011):
pKi: −log10 of the molar value.

Molecular target: T1, cloned human CRTH2 receptor (Homo sapiens, UniProt Q9Y5Y4)
T1 construct: purchased Biosignal; host or cells: HEK-293 cells stably expressing human CRTH2 and G alpha 16
T1 sequence (Q9Y5Y4 1-395): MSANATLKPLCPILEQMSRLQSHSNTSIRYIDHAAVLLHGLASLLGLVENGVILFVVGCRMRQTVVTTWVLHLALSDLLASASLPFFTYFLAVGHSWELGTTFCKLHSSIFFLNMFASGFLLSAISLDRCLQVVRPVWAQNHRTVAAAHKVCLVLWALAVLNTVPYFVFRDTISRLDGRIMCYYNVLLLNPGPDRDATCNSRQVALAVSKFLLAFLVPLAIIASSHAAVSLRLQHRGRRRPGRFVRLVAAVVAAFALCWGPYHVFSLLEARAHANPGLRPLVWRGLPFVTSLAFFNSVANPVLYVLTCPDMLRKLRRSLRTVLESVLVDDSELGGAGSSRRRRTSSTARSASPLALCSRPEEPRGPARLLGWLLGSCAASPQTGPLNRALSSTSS
Assay: radioligand membrane binding assay: inhibition of [3H] PGD2 binding, Scintillation Proximity Assay
Conditions: [3H] PGD2 binding to membranes of HEK-293 cells expressing human CRTH2; SPA
Experimental: This radioligand membrane binding assay evaluates the ability of compounds to inhibit [^3H] Prostaglandin D2 (PGD2) binding to the cloned human CRTH2 receptor stably expressed in HEK-293 cells (expressing human CRTh2 receptor and α subunit or the heterotrimeric G protein 16 were prepared by Biosignal Company) using Scintillation Proximity Assay.
A binding buffer containing 50 mM Tris-HCl (pH 7.5), 5 mM MgCl2 and 1 mM EDTA is prepared immediately prior to performing the assay. A bead/membrane solution at twice the final assay concentration comprising membranes (membranes bought from Biosignal) from the HEK-293 cells cloned to express CRTH2 receptor bound to and [^3H] PGD2 at two times the final assay concentration are prepared and stored on ice before adding to wells. Cold PGD2 at twenty times the final assay concentration is prepared and stored on ice before adding to wells defining non-specific binding (NSB) coming plates #3653 are used for this assay.
10 mM stock concentrations of compounds in 100% DMSO are prepared and stored at room temperature. A 10 point concentration response curve is then constructed for each compound, starting at 10 μM (final assay concentration). The compounds are prepared at 40 times final assay concentrations with nine consequent-3-fold dilutions.
0.1 μl of each concentration of compound are added to the appropriate well of the 384 plate and 2 μl of cold PGD2 is added into the wells defining NSB. 20 μl of [3H] PGD2 and then 20 μl of 2× of bead/membrane solution are then added to each well.
The plates are allowed to incubate at room temperature for approximately 2 hours and then counted on Packard Topcount using SPA tritium protocol for 1 minute/well.
The percent inhibition of PGD2 binding (PGD2 used at the KD value or lower) to the HEK-293 cell membranes is determined, the assay is always run as duplicate for n=1 for a total of n=2 and shown below.

SMILES | pKi
CCN(C(=O)[C@H]1C[C@H](C)N(C(=O)c2ccc(OC)cc2)c2ccccc21)c1ccc(C)c(C(F)(F)F)c1 (racemic) [Compound 50, (±)-trans-1-(4-Methoxy-benzoyl)-2-methyl-1,2,3,4-tetrahydro-quinoline-4-carboxylic acid ethyl-(4-methyl-3-trifluoromethyl-phenyl)-amide] | > 5.00
CCN(C(=O)[C@H]1C[C@H](C)N(C(=O)c2ccc(OC)cc2)c2ccccc21)c1ccccc1C (racemic) [Compound 61, (±)-trans-1-(4-Methoxy-benzoyl)-2-methyl-1,2,3,4-tetrahydro-quinoline-4-carboxylic acid ethyl-o-tolyl-amide] | > 5.00
CCN(C(=O)[C@H]1C[C@H](C)N(C(=O)c2ccc(OC)cc2)c2ccccc21)c1ccc(C)c(F)c1 (racemic) [Compound 57, (±)-trans-1-(4-Methoxy-benzoyl)-2-methyl-1,2,3,4-tetrahydro-quinoline-4-carboxylic acid ethyl-(3-fluoro-4-methyl-phenyl)-amide] | > 5.00
CCN(C(=O)[C@H]1C[C@H](C)N(C(=O)Cc2ccc(OC)cc2)c2ccccc21)c1ccc(Cl)cc1 (racemic) [Compound 2, (±)-trans-1-[2-(4-Methoxy-phenyl)-acetyl]-2-methyl-1,2,3,4-tetrahydro-quinoline-4-carboxylic acid (4-chloro-phenyl)-ethyl-amide] | > 5.00
CCN(C(=O)[C@H]1C[C@H](C)N(C(=O)c2ccc(OC)cc2)c2ccccc21)c1ccc(Cl)c(C(F)(F)F)c1 (racemic) [Compound 11, (±)-trans-1-(4-Methoxy-benzoyl)-2-methyl-1,2,3,4-tetrahydro-quinoline-4-carboxylic acid (4-chloro-3-trifluoromethyl-phenyl)-ethyl-amide] | > 5.00
CCN(C(=O)C1CCN(C(=O)c2ccc(OC)cc2)c2ccccc21)c1ccc(Cl)cc1 (racemic) [Compound 33, (±)-1-(4-Methoxy-benzoyl)-1,2,3,4-tetrahydro-quinoline-4-carboxylic acid (4-chloro-phenyl)-ethyl-amide] | > 5.00
CCN(C(=O)[C@H]1C[C@H](C)N(C(=O)c2ccc(OC)cc2)c2ccccc21)c1cc(C)on1 (racemic) [Compound 35, (±)-trans-1-(4-Methoxy-benzoyl)-2-methyl-1,2,3,4-tetrahydro-quinoline-4-carboxylic acid ethyl-(5-methyl-isoxazol-3-yl)-amide] | > 5.00
CCN(C(=O)[C@H]1C[C@@H](C)N(C(=O)c2ccc(OCCC(C)(C)C(=O)O)cc2)c2ccccc21)c1ccc(Cl)cc1 (racemic) [Compound 76, (±)-cis-4-(4-{4-[(4-Chloro-phenyl)-ethyl-carbamoyl]-2-methyl-3,4-dihydro-2H-quinoline-1-carbonyl}-phenoxy)-2,2-dimethyl-butyric acid] | > 5.00
CCN(Cc1ccc(Cl)cc1)C(=O)[C@H]1C[C@H](C)N(C(=O)c2ccc(OC)cc2)c2ccccc21 (racemic) [Compound 5, (±)-trans-1-(4-Methoxy-benzoyl)-2-methyl-1,2,3,4-tetrahydro-quinoline-4-carboxylic acid (4-chloro-benzyl)-ethyl-amide] | > 5.00
CCN(C(=O)[C@H]1C[C@H](C)N(C(=O)c2ccc(OC)cc2)c2ccccc21)c1ccc(C(C)C)cc1 (racemic) [Compound 15, (±)-trans-1-(4-Methoxy-benzoyl)-2-methyl-1,2,3,4-tetrahydro-quinoline-4-carboxylic acid ethyl-(4-isopropyl-phenyl)-amide] | > 5.00
